This note sets out measurements from patent US20110098359A1, “Compositions and Methods for Treatment of Glaucoma” (Stellenbosch University, priority 2007, published 2011).

Data set [1] in a line: Permeability experiments in flow-through diffusion cells across rabbit corneas. It is filed as in vitro ADME. The conditions noted are these: for steady-state flux values: frozen/thawed rabbit cornea, 20° C. From the text: (§1) Harvested donor comeas, which were deemed unsuitable for transplantation because of infections such as hepatitis B and human immunodeficiency virus (HIV), were obtained from The Eye Bank Foundation of South Africa Observatory from 6 patients (mean age±SD, 35±12 years; range, 24-65 years). In addition, rabbit corneas were obtained from 6 freshly slaughtered rabbits (Country Lane Nursery Farm, Kraaifontein, Cape Town, South Africa). Excised corneas were immediately placed in McCarey-Kaufman solution and transported to a laboratory within 6 hours. The McCarey-Kaufman solution consisted of a stock solution of Medium 199 (Sigma Chemical Company, St. Louis, Mo., U.S.A.) to which sodium bicarbonate, as well as 25 mM of HEPES and 5% dextran, was added before using the solution for the transport of corneal specimens. On arrival in the laboratory, the corneas were hemisected. One half was used immediately, and the other half was snap-frozen in liquid nitrogen and stored at −85° C. for no longer than 6 months before use. At least one piece of corneal tissue from each specimen was placed in formalin and retained for histologic examination.
(§2) Before each permeability experiment, tissue specimens were thawed at room temperature in phosphate buffered saline (PBS, pH 7.4). […]
(§3) Following equilibration, the PBS was removed from the donor compartment and replaced with 1.0 mL of PBS, containing 1 mg/mL (0.1%) paracetamol in PBS at pH 7.4 (w/v) or else 1 mg/mL (0.1%) paracetamol in a commercially available artificial tear gel i.e. Teargel® liquid gel (Restan Laboratories, Bryanston, South Africa). […] Samples were analyzed at the Division of Pharmacology, Faculty of Health Sciences, Stellenbosch University by HPLC with UV detection. The collected fractions were analyzed directly after completion of the respective experiment for their paracetamol content.
(§4) Flux (J) values across membranes were calculated by means of the relationship
(§5) where Q indicates quantity of substance crossing membrane (in ng); A, membrane area exposed (in cm^2); and t, time of exposure (in minutes). […]

Data set [2] in a line: Initial trials: oral paracetamol in patients with glaucoma, intra-ocular pressure reduction. The note with it: 1000 mg orally 4 to 6 hourly, after 24 to 48 hours. It is filed as in vivo, human. The method, then: In initial trials, 1000 mg of paracetamol was administered orally 4 to 6 hourly to several patients with glaucoma. In all cases the intra-ocular pressure reduction was in the order of 30% after 24 to 48 hours. This compares well with the pressure lowering effect of currently available commercial preparations.

Data set [3] is described as follows: Permeability experiments in flow-through diffusion cells across human corneas. The conditions noted are these: for steady-state flux values: frozen/thawed human cornea, 20° C. It is filed as in vitro ADME.
Excerpt: as §1, §2, §3, §4, §5

Data set [4] can be described thus: Corneal penetration experiments (general statement). The format is in vitro ADME. The conditions noted are these: more than 2000 corneal penetration experiments. Here is the method:
An ophthalmic solution was made up as follows: 1 mg/ml (0.1%) solution of paracetamol in phosphate buffered saline (pH=7.4) was used for half of the experiments and 1 mg/ml (0.1%) solution of paracetamol in phosphate […]. […] These tests were conducted in the following manner.

[5] abbreviates: 0.1% paracetamol in Teargel (TG).

On to `CC(=O)Nc1ccc(O)cc1` [paracetamol], for which the steady-state flux values in data set [1] (0.1% paracetamol in PBS pH 7.4) worked out at 774±30 ng·cm^−2·min^−1; in data set [1] (setting [5]) it was 860±39 ng·cm^−2·min^−1; in data set [3] (0.1% paracetamol in PBS pH 7.4) it was 870±76 ng·cm^−2·min^−1; in data set [3] (setting [5]) it was 860±33 ng·cm^−2·min^−1. Further, the “effect of Teargel on the diffusion rate of paracetamol” value in data set [1] (across rabbit corneas, Teargel vs PBS, 0.1%) is “increase the diffusion rate”. In data set [2], this compound came in with an intra-ocular pressure reduction of roughly 30%. Moreover, the “effect of Teargel as a soluent on the diffusion rate of paracetamol” value in data set [3] (across human corneas, Teargel vs PBS, 0.1%) is reported as “did not affect the diffusion rate”. The corneal penetration result in data set [4] was “does penetrate the cornea well”.
